This is an account of results in ChEMBL document CHEMBL1132650, “4,5-Dihydro-1,2,4-triazolo[1,5-a]quinoxalin-4-ones: excitatory amino acid antagonists with combined glycine/NMDA and AMPA receptor affinity” (J Med Chem, 1999).

Assay [1] has as its target T1, Glutamate receptor ionotropic, AMPA (Rattus norvegicus, UniProt P19490+P19491+P19492+P19493). As to the kind of experiment: Binding affinity towards ionotropic glutamate receptor AMPA in rat cortical membranes using [3H]AMPA radioligand. It is filed as cell membranes.
Assay [2] has as its target T2, Glutamate receptor ionotropic, NMDA 1 (Rattus norvegicus, UniProt P35439). The assay can be described thus: Functional antagonism at the N-methyl-D-aspartate glutamate receptor 1 was demonstarted by the ability to inhibit the binding of the channel-blocking agent [3H](+)-MK-801.
Assay [3] concerns the target T2, Glutamate receptor ionotropic, NMDA 1. As to the kind of experiment: Binding affinity towards N-methyl-D-aspartate glutamate receptor 1 in rat cortical membranes using [3H]glycine as radioligand. It is filed as cell membranes.
Assay [4] has the same target. The assay can be described thus: Functional antagonism at the NMDA receptor-ion channel complex was demonstarted by the ability to inhibit the binding of the channel-blocking agent [3H](+)-MK-801.
The target is the same in assay [5]. The assay can be described thus: The compound was tested for its binding affinity towards Glycine/NMDA receptor in rat cortical membranes using [3H]glycine as radioligand. It is filed as cell membranes.
The target of assay [6] is T1, Glutamate receptor ionotropic, AMPA. The assay can be described thus: The compound was tested for its binding affinity towards AMPA receptor in rat cortical membranes using [3H]AMPA radioligand. Format: cell membranes.

Consider `O=C(O)c1nc2c(=O)[nH]c3cc([N+](=O)[O-])ccc3n2n1`, for which the Ki was 0.6 µM in assay [1] and 0.71 µM in assay [3]. Moreover, in assay [2], the EC50 stood at 7.8 µM.
In the case of `CCOC(=O)c1nc2c(O)nc3ccccc3n2n1`, the Ki in assay [1] came out at 28.5 µM; in assay [3] it was 16.7 µM. For the same molecule, it took 69 µM to reach a half-maximal effect in assay [2] (EC50).
In assay [4], `O=C(O)c1nc2c(=O)[nH]c3cc(Cl)c(Cl)cc3n2n1` yielded an EC50 of 0.3 µM. Moreover, the inhibitory constant (Ki) was determined as 0.074 µM in assay [5] and 1.3 µM in assay [1].
Turning to `CCOC(=O)Cc1nc2c(=O)[nH]c3cc(Cl)ccc3n2n1`, the figures for the Ki in assay [1] and in assay [3] were 2.1 µM and 6.5 µM, respectively.
As for `O=C(O)c1nc2c(=O)[nH]c3ccccc3n2n1`, the results for the Ki in assay [1] and in assay [3] were 13.6 µM and 1.1 µM, respectively. Also, a half-maximal response in assay [2] (EC50) required 4.9 µM.
As to `CCOC(=O)c1nc2c(=O)[nH]c3cc(Cl)cc(Cl)c3n2n1`, the Ki in assay [1] was 4.9 µM; in assay [3] it was 4.8 µM.
In the case of `NNC(=O)c1nc2c(=O)[nH]c3cc(Cl)ccc3n2n1`, the Ki was 9.6 µM in assay [5] and 5 µM in assay [6].
With `O=C(O)c1cc(O)c2c(Cl)cc(Cl)cc2n1`, the EC50 in assay [2] turned out to be 0.33 µM.
Take `O=C(NO)c1nc2c(O)nc3cc(Cl)ccc3n2n1`: the Ki in assay [5] was 1.1 µM; in assay [6], 3 µM.
Take `O=C(O)c1nc2c(=O)[nH]c3cc(Br)ccc3n2n1`: the figures for the Ki in assay [1] and in assay [3] were 4.4 µM and 0.39 µM, respectively. This molecule also had an EC50 in assay [2] of 3.7 µM.
With `CCOC(=O)c1nc2c(=O)[nH]c3cc(N)ccc3n2n1`, the Ki in assay [1] and in assay [3] was above 100 µM throughout. The molecule also showed an EC50 in assay [2] above 100 µM.
As to `O=C(O)c1nc2c(=O)[nH]c3ccc(Cl)cc3n2n1`, the Ki in assay [1] stood at 18.4 µM; in assay [3] it was 3.5 µM. In addition, in assay [2], a half-maximal response (EC50) required 32.5 µM.
Regarding `COC(=O)CNC(=O)c1nc2c(=O)[nH]c3cc(Cl)ccc3n2n1`, the Ki is 4.1 µM in assay [1] and 5.4 µM in assay [3].
Take `CCOC(=O)c1nc2c(=O)[nH]c3cc(C(F)(F)F)ccc3n2n1`: the Ki came to 3.6 µM in assay [1] and 1.8 µM in assay [3].
`O=C(O)c1nc2c(=O)[nH]c3cc(Cl)cc(Cl)c3n2n1`: the Ki in assay [1] came to 1.53 µM; in assay [3], 0.14 µM. In addition, it took 1.35 µM to reach a half-maximal effect in assay [2] (EC50).
In the case of `CCOC(=O)c1nc2c(=O)[nH]c3ccc(Cl)cc3n2n1`, the Ki came to 72.1 µM in assay [1] and 88.2 µM in assay [3].
Take `O=C(O)CNC(=O)c1nc2c(O)nc3cc(Cl)ccc3n2n1`: the Ki is 3.2 µM in assay [1] and 8.8 µM in assay [3].
Take `O=C(O)c1nc2c(O)nc3cc(Cl)ccc3n2n1`: the Ki in assay [1] is 0.78 µM; in assay [3], 0.17 µM. Besides, the EC50 in assay [2] is 2.9 µM.
Turning to `O=C(Nc1nn[nH]n1)c1nc2c(O)nc3cc(Cl)ccc3n2n1`, the Ki in assay [1] was determined as 2.4 µM; in assay [3], 5.1 µM.
Regarding `CCOC(=O)c1nc2c(O)nc3cc(Br)ccc3n2n1`, the Ki is 3.3 µM in assay [1] and 2.6 µM in assay [3].
In the case of `O=C(O)c1nc2c(O)nc3cc(C(F)(F)F)ccc3n2n1`, the Ki in assay [1] was found to be 0.9 µM; in assay [3], 0.57 µM. Moreover, in assay [2], the response was half-maximal at 3.18 µM (EC50).
As for `O=C(O)Cc1nc2c(O)nc3cc(Cl)ccc3n2n1`, the figures for the Ki in assay [1] and in assay [3] were 3.7 µM and 1.1 µM, respectively.
In the case of `OCc1nc2c(O)nc3cc(Cl)ccc3n2n1`, the Ki came out at 4.4 µM in assay [1] and 7.5 µM in assay [3].
For the molecule `CCOC(=O)c1nc2c(O)nc3cc(Cl)ccc3n2n1`, the figures for the Ki in assay [1] and in assay [3] were 2.6 µM and 3 µM, respectively. The EC50 in assay [2] is 22.1 µM.
As to `O=C(NCCO)c1nc2c(O)nc3cc(Cl)ccc3n2n1`, the Ki in assay [1] turned out to be 7.7 µM; in assay [3] it was 27.7 µM.
For the molecule `CCOC(=O)c1nc2c(O)nc3cc(Cl)c(Cl)cc3n2n1`, the Ki in assay [1] amounted to 33.9 µM; in assay [3], 0.71 µM. Besides, in assay [2], a half-maximal response (EC50) required 1.5 µM.
On to `O=C(O)c1nc2c(O)nc3cc(Cl)c([N+](=O)[O-])cc3n2n1`, for which the results for the Ki in assay [1] and in assay [3] were 1.2 µM and 2.2 µM, respectively.
`O=C(O)c1nc2c(O)nc3ccc([N+](=O)[O-])cc3n2n1`: the results for the Ki in assay [1] and in assay [3] were 10.7 µM and 79.4 µM, respectively. For the same molecule, the EC50 in assay [2] is above 100 µM.
For `N#CCc1nc2c(O)nc3cc(Cl)ccc3n2n1`, the Ki is 2 µM in assay [1] and 9.7 µM in assay [3].
`CCn1c(=O)c2nc(C(=O)O)nn2c2ccc(Cl)cc21`: the Ki in assay [1] was above 100 µM; in assay [3] it was 88 µM. For the same molecule, the EC50 in assay [2] was above 100 µM.
`NC(=O)c1nc2c(=O)[nH]c3cc(Cl)ccc3n2n1`: the figures for the Ki in assay [1] and in assay [3] were 11.7 µM and 7.2 µM, respectively.
For the molecule `O=C(O)c1nc2c(O)nc3c([N+](=O)[O-])cc(Cl)cc3n2n1`, the Ki worked out at 4 µM in assay [1] and 4.5 µM in assay [3]. The concentration for a half-maximal effect (EC50) in assay [2] is above 100 µM.
